Values quoted from earlier work as cited in patent publication US9750250B2, “Conjugated polyelectrolytes and methods of using the same” (STC.UNM, priority 2015, dated 2017).

Conditions: deuterated methanol

SMILES: CC(=O)c1ccc2ccccc2c1 [2′-acetonaphthone]
- singlet oxygen quantum yield ΦΔ of the standard: 0.79±0.02
